The values that follow come from patent US4372973A, “16-Amino-postaglandin derivatives, their acid addition salts, and a process for the preparation thereof” (priority 1981, dated 1983).

For data set [1], the system named is 15-hydroxy-prostaglandin-dehydrogenase. As to the kind of experiment: 15-Hydroxy-prostaglandin-dehydrogenase substrate test. In kind it is in vitro ADME. The arrangement: key: substrate; O: no substrate of the enzyme. The conditions noted are these: In this test the concentration of the compounds 1.10^-4 mole/lit. The procedure:
Beyond these tests it was determined according to P. Tolnay et al. (Acta Biochim. Biophys. Acad. Sci. Hung. 14, 67 (1979)) whether the compounds of the invention are substrates of the 15-hydroxy-prostaglandin-dehydrogenaseenzyme.

In data set [2] the test system is guinea pig ileum. Nature of the data set: Smooth muscle contraction, ileum. The data set is classed as cell-based. To be noted: PGF2α = 1.00. The text has this: (§1) The compounds prepared according to the process of the invention were submitted to several tests developed for detecting the effects of 9α, 11α, 15(S)-trihydroxy-5-cis, 13-trans-prostadienoic acid (PGF2α). From the organs containing smooth muscle guinea pig trachea, ileum and rat uterine horn were used in the trials. The organs were suspended in isotonic salt medium and the potency was registered on the basis of isotonic contractions (Pharmacological Experiments on Isolated Preparations, Ed. W. L. M. Perry and E. S. Livingstone, Edinburgh and London (1970)). The effect exerted on the aggregation of human blood platelets, induced by 5.10^-5 mole/lit. of adenosine-5'-phosphate, was measured in a CHRONO LOG Aggregometer according to A. V. R. Born (J. Physiol. 162, 67 (1962)).

The subject of data set [3] is rat uterine horn. Nature of the data set: Smooth muscle contraction, uterus. The data set is classed as cell-based. To be noted: PGF2α = 1.00.
Excerpt: as §1

In data set [4] the test system is human blood platelets. Nature of the data set: Inhibition of blood platelet aggregation. In kind it is cell-based. The conditions noted are these: 100 μg/ml, induced by 5.10^-5 mole/lit. of adenosine-5'-phosphate.
Excerpt: as §1

Data set [5] relates to guinea pig trachea. Nature of the data set: Smooth muscle contraction, trachea. The data set is classed as cell-based. On the set-up: key: +: contraction on trachea; O: inactive on trachea. The conditions noted are these: 1 μg/ml.
Excerpt: as §1

The subject of data set [6] is white mice on the 17th or 18th day of pregnancy. As to the kind of experiment: Abortive effect in pregnant mice. In kind it is in vivo. To be noted: s.c.; for ED50: Mus musculus, sc, 48 h, body weight, white mice, 17th or 18th day of pregnancy, 5 animals per group. As to the method:
(§2) The favorable biological properties of the new compounds of the invention are clearly manifested in their abortive effect. The test materials were administered subcutaneously to white mice on the 17th or 18th day of pregnancy, then the deliveries were followed up in the subsequent 48 hours, and the overall status of the excised uterus (scars, embrional residual debris) was evaluated (M. J. R. Harper et al.: Advances in Biosciences 9, 789 (1973)). In groups containing 5 animals the dose effect relationships of PGF2α, its methyl ester, as well as of the new 16-amino-prostaglandin derivatives were determined.

Data set [7] is described as follows: Laxative effect (diarrhea) at abortive doses. In kind it is in vivo, white mice. As to the method: as §2

“Also recorded” adds a separate entry of the source.

Take `CCCC[C@H](N)C(O)/C=C/[C@@H]1[C@@H](C/C=C\CCCC(=O)O)[C@@H](O)C[C@H]1O` (single isomer, unassigned): the “15-Hydroxy-prostaglandin-dehydrogenase (substrate or no substrate)” value in data set [1] is “O”. In data set [2], the “Smooth muscle contraction relative efficiency Ileum” value turned out to be 0.11. Besides, the “Smooth muscle contraction relative efficiency Uterus” value in data set [3] was determined as 0.83. The inhibition at 100 µg/mL in data set [4] was 75%.
In the case of `CCCC[C@H](N)C(O)/C=C/[C@@H]1[C@@H](C/C=C\CCCC(=O)OC)[C@@H](O)C[C@H]1O` (single isomer, unassigned), the “15-Hydroxy-prostaglandin-dehydrogenase (substrate or no substrate)” value in data set [1] is “O”. Moreover, the “Smooth muscle contraction Trachea” value in data set [5] is “O”. Further, the “Smooth muscle contraction relative efficiency Ileum” value in data set [2] turned out to be 0.17. The “Smooth muscle contraction relative efficiency Uterus” value in data set [3] is on record as 0.99. The inhibition at 100 µg/mL in data set [4] is 52%. Moreover, the ED50 in data set [6] was 0.1 mg/kg. For the same molecule, in data set [6] (mice, compared to PGF2α, listed as 9 α, 11 α, 15(ksi)-trihydroxy-16(S)-amino-5-cis, 13-trans-prostadienoic acid met), the “abortive potency (in words)” value was “exceedingly high abortive effect; also recorded: the most active agent”. In addition, the diarrhea result in data set [7] (even at the tenfold of the abortive dose) is “no diarrhea is observed”.
In the case of `CCCCC[C@H](O)/C=C/[C@@H]1[C@@H](C/C=C\CCCC(=O)O)[C@@H](O)C[C@H]1O` [PGF2α, 9α, 11α, 15(S)-trihydroxy-5-cis, 13-trans-prostadienoic acid, reference compound], the “15-Hydroxy-prostaglandin-dehydrogenase (substrate or no substrate)” value in data set [1] is given as “s”. In data set [5], the “Smooth muscle contraction Trachea” value was “+”. In addition, the “Smooth muscle contraction relative efficiency Ileum” value in data set [2] turned out to be 1.00. Moreover, the “Smooth muscle contraction relative efficiency Uterus” value in data set [3] was 1.00. Further, 100 µg/mL produced 82% inhibition in data set [4]. This molecule returned an ED50 in data set [6] of 20 mg/kg. Besides, the laxative effect entry in data set [7] (mouse, in vivo) is recorded as “exhibit also a laxative effect”.
`CCCC[C@@H](N)C(O)/C=C/[C@@H]1[C@@H](C/C=C\CCCC(=O)O)[C@@H](O)C[C@H]1O` (single isomer, unassigned): the “15-Hydroxy-prostaglandin-dehydrogenase (substrate or no substrate)” value in data set [1] is listed as “O”. Also, the “Smooth muscle contraction Trachea” value in data set [5] is on record as “O”. Further, the “Smooth muscle contraction relative efficiency Ileum” value in data set [2] is recorded as 0.02. In data set [3], the “Smooth muscle contraction relative efficiency Uterus” value amounted to 0.13.
Turning to `CCCC[C@@H](N)C(O)/C=C/[C@@H]1[C@@H](C/C=C\CCCC(=O)OC)[C@@H](O)C[C@H]1O` (single isomer, unassigned), the “15-Hydroxy-prostaglandin-dehydrogenase (substrate or no substrate)” value in data set [1] is recorded as “O”. In data set [5], the “Smooth muscle contraction Trachea” value is reported as “O”. The “Smooth muscle contraction relative efficiency Ileum” value in data set [2] was 0.02. Moreover, in data set [3], the “Smooth muscle contraction relative efficiency Uterus” value stood at 0.05.
As to `CCCCC[C@H](O)/C=C/[C@@H]1[C@@H](C/C=C\CCCC(=O)OC)[C@@H](O)C[C@H]1O` [PGF2α methyl ester, reference compound], the “15-Hydroxy-prostaglandin-dehydrogenase (substrate or no substrate)” value in data set [1] is on record as “s”. For the same molecule, in data set [5], the “Smooth muscle contraction Trachea” value is recorded as “+”. In data set [2], the “Smooth muscle contraction relative efficiency Ileum” value came out at 0.78. In data set [3], the “Smooth muscle contraction relative efficiency Uterus” value is listed as 1.25. In data set [4], this molecule had an inhibition at 100 µg/mL of 56%. The molecule also had an ED50 in data set [6] of 6 mg/kg. In data set [7] (at abortive doses), the laxative effect entry is given as “exhibit also a laxative effect”.
